In patent publication US8293774B2, “Optically active (R)-aryloxypropionic acid amides and herbicidal composition comprising same” (Kyung Nong Corporation, priority 2007, dated 2012):

Legend:
[1] = system: ARTHIS (Arthraxon hispidus (Thunb.) Makino, creek grass); test: Weed control test, foliage treatment (Test Example 1, Table 7); type: in vivo; conditions: Arthraxon hispidus, foliar, read-out: Plant damage (herbicidal activity), visually evaluated, ARTHIS; for pest or weed control at 25 g/ha: 0.025 kg/ha; for pest or weed control at 100 g/ha: 0.1 kg/ha; for pest or weed control at 200 g/ha: 0.2 kg/ha
Experimental: (§1) Seeds of rice, wheat, soy bean, barley, corn, common sorgum, barnyard grass, large crabgrass, creek grass, green foxtail and fall panicum were placed in sandy loam in 600 cm^2 pots and covered with soil. After keeping the pots in a greenhouse at 20 to 30° C. allowing growth of the plants to the 3-leaf stage of the barnyard grass, 2,000 l/ha of an emulsion obtained by diluting with water a mixture of 1 part by weight of a test compound, 5 parts by weight of acetone and 1 part by weight of an emulsifying agent (Tween 80, Junsei) was applied to the surface of the foliage of the plants. The plant damage at 10 days and 20 days after the foliage treatment was visually evaluated from the level of 1 to 100% by comparison with the untreated control: […]

[2] = system: DIGSA (Digitaria Sanguinalis (L.) SCOP, large crabgrass); test: as above; type: in vivo; conditions: Digitaria sanguinalis, foliar, read-out: Plant damage (herbicidal activity), visually evaluated, DIGSA; for pest or weed control at 25 g/ha: 0.025 kg/ha; for pest or weed control at 100 g/ha: 0.1 kg/ha; for pest or weed control at 200 g/ha: 0.2 kg/ha
Experimental: as §1

[3] = system: ECHOG (Echinoch crus-galli Beauv. var. caudata Kitagawa, barnyard grass); test: as above; type: in vivo; conditions: Echinochloa crus-galli, foliar, 3-leaf stage, read-out: Plant damage (herbicidal activity), visually evaluated, ECHOG; for pest or weed control at 25 g/ha: 0.025 kg/ha; for pest or weed control at 100 g/ha: 0.1 kg/ha; for pest or weed control at 200 g/ha: 0.2 kg/ha
Experimental: as §1

[4] = system: SORBI (Andropogon sorghum, common sorgum); test: as above; type: in vivo; conditions: Sorghum bicolor, foliar, read-out: Plant damage (herbicidal activity), visually evaluated, SORBI; for pest or weed control at 25 g/ha: 0.025 kg/ha; for pest or weed control at 100 g/ha: 0.1 kg/ha; for pest or weed control at 200 g/ha: 0.2 kg/ha
Experimental: as §1

[5] = system: ZEAMX (Zea mays L., corn); test: as above; type: in vivo; conditions: Zea mays, foliar, read-out: Plant damage (herbicidal activity), visually evaluated, ZEAMX; for plant injury at 25 g/ha: 0.025 kg/ha; for plant injury at 100 g/ha: 0.1 kg/ha; for plant injury at 200 g/ha: 0.2 kg/ha
Experimental: as §1

[6] = system: SETVIR (Setaria viridis (L.) Beauv, green foxtail); test: as above; type: in vivo; conditions: Setaria viridis, foliar, read-out: Plant damage (herbicidal activity), visually evaluated, SETVIR; for pest or weed control at 25 g/ha: 0.025 kg/ha; for pest or weed control at 100 g/ha: 0.1 kg/ha; for pest or weed control at 200 g/ha: 0.2 kg/ha
Experimental: as §1

[7] = system: PANDI (Panium dichotomiflorum Michx, fall panicum); test: as above; type: in vivo; conditions: Panicum dichotomiflorum, foliar, read-out: Plant damage (herbicidal activity), visually evaluated, PANDI; for pest or weed control at 25 g/ha: 0.025 kg/ha; for pest or weed control at 100 g/ha: 0.1 kg/ha; for pest or weed control at 200 g/ha: 0.2 kg/ha
Experimental: as §1

[8] = system: TRZAW (Tritium aestivum L., wheat); test: as above; conditions: in vivo
Experimental: as §1

[9] = system: GLXMA (Glycine max(L.) MERR, soy bean); test: as above; conditions: in vivo
Experimental: as §1

[10] = system: ORYSA (Oryza sativa cv. Dongjin, rice); test: as above; conditions: in vivo
Experimental: as §1

Rice = test: Weed control test, 4-leaf stage plants (Test Example 1, Table 8); conditions: in vivo
Experimental: as §1

Barnyard grass = test: as above; type: in vivo, Echinoch crus-galli Beauv. var. caudata Kitagawa
Excerpt: as §1, with “[…],” for “After keeping the pots in a greenhouse at 20 to 30° C. allowing growth of the plants to the 3-leaf stage of the barnyard grass,”

[11] = system: HORVU (Hordeum vulgare L., barley); test: Weed control test, foliage treatment (Test Example 1, Table 7); conditions: in vivo
Experimental: as §1

SMILES: C[C@@H](Oc1ccc(Oc2nc3ccc(Cl)cc3o2)cc1)C(=O)N(C)c1nc2ccccc2s1 [Example 6, (R)-2-[4-(6-chloro-2-benzoxazolyloxy)phenoxy]propionic acid-N-(2-benzothiazolyl)-N-methyl amide]
- pest or weed control at 25 g/ha [1]: 0%
- pest or weed control at 100 g/ha [1]: 20%
- pest or weed control at 200 g/ha [1]: 50%
- pest or weed control at 25 g/ha [2]: 0%
- pest or weed control at 100 g/ha [2]: 20%
- pest or weed control at 200 g/ha [2]: 70%
- pest or weed control at 25 g/ha [3]: 0%
- pest or weed control at 100 g/ha [3]: 20%
- pest or weed control at 200 g/ha [3]: 70%
- pest or weed control at 25 g/ha [4]: 10%
- pest or weed control at 100 g/ha [4]: 50%
- pest or weed control at 200 g/ha [4]: 90%
- plant injury at 25 g/ha [5]: 0%
- plant injury at 100 g/ha [5]: 10%
- plant injury at 200 g/ha [5]: 90%
- pest or weed control at 25 g/ha [6]: 0%
- pest or weed control at 100 g/ha [6]: 20%
- pest or weed control at 200 g/ha [6]: 50%
- pest or weed control at 25 g/ha [7]: 0%
- pest or weed control at 100 g/ha [7]: 20%
- pest or weed control at 200 g/ha [7]: 70%
- Plant damage (herbicidal activity), visually evaluated, TRZAW [8]: 0%
- Plant damage (herbicidal activity), visually evaluated, GLXMA [9]: 0%
- Plant damage (herbicidal activity), visually evaluated, ORYSA [10]: 0%
- Plant damage (herbicidal activity), visually evaluated, Rice (Rice): 0%
- Plant damage (herbicidal activity), visually evaluated, Barnyard grass (Barnyard grass; 0.025 kg/ha): 0%
- Plant damage (herbicidal activity), visually evaluated, Barnyard grass (Barnyard grass; 0.05 kg/ha): 0%
- Plant damage (herbicidal activity), visually evaluated, Barnyard grass (Barnyard grass; 0.1 kg/ha): 10%
- Plant damage (herbicidal activity), visually evaluated, Barnyard grass (Barnyard grass; 0.4 kg/ha): 30%

SMILES: Cc1ccc(C=C(F)Oc2ccc(O[C@H](C)C(=O)Nc3ccccc3F)cc2)cc1 [Example 41, (R)-2-[4-(1-fluoro-2-(4-methylphenyl)vinyloxy)phenoxy]propionic acid-N-(2-fluorophenyl)amide]
- pest or weed control at 25 g/ha [1]: 0%
- pest or weed control at 100 g/ha [1]: 0%
- pest or weed control at 200 g/ha [1]: 20%
- pest or weed control at 25 g/ha [2]: 0%
- pest or weed control at 100 g/ha [2]: 0%
- pest or weed control at 200 g/ha [2]: 50%
- pest or weed control at 25 g/ha [3]: 0%
- pest or weed control at 100 g/ha [3]: 0%
- pest or weed control at 200 g/ha [3]: 20%
- pest or weed control at 25 g/ha [4]: 0%
- pest or weed control at 100 g/ha [4]: 0%
- pest or weed control at 200 g/ha [4]: 0%
- plant injury at 25 g/ha [5]: 0%
- plant injury at 100 g/ha [5]: 0%
- plant injury at 200 g/ha [5]: 20%
- pest or weed control at 25 g/ha [6]: 0%
- pest or weed control at 100 g/ha [6]: 20%
- pest or weed control at 200 g/ha [6]: 70%
- pest or weed control at 25 g/ha [7]: 20%
- pest or weed control at 100 g/ha [7]: 70%
- pest or weed control at 200 g/ha [7]: 70%
- Plant damage (herbicidal activity), visually evaluated, TRZAW [8]: 0%
- Plant damage (herbicidal activity), visually evaluated, HORVU [11]: 0%
- Plant damage (herbicidal activity), visually evaluated, GLXMA [9]: 0%
- Plant damage (herbicidal activity), visually evaluated, ORYSA [10]: 0%

SMILES: C[C@@H](Oc1ccc(C(F)=C(c2ccccc2)C(F)(F)F)cc1)C(=O)Nc1ccccc1F [Example 42, (R)-2-[4-(1,3,3,3-tetrafluoro-2-phenylprop-1-enyl)phenoxy]propionic acid-N-(2-fluorophenyl)amide]
- pest or weed control at 25 g/ha [1]: 0%
- pest or weed control at 100 g/ha [1]: 0%
- pest or weed control at 200 g/ha [1]: 50%
- pest or weed control at 25 g/ha [2]: 0%
- pest or weed control at 100 g/ha [2]: 0%
- pest or weed control at 200 g/ha [2]: 20%
- pest or weed control at 25 g/ha [3]: 0%
- pest or weed control at 100 g/ha [3]: 20%
- pest or weed control at 200 g/ha [3]: 20%
- pest or weed control at 25 g/ha [4]: 0%
- pest or weed control at 100 g/ha [4]: 0%
- pest or weed control at 200 g/ha [4]: 0%
- plant injury at 25 g/ha [5]: 0%
- plant injury at 100 g/ha [5]: 30%
- plant injury at 200 g/ha [5]: 90%
- pest or weed control at 25 g/ha [6]: 0%
- pest or weed control at 100 g/ha [6]: 0%
- pest or weed control at 200 g/ha [6]: 70%
- pest or weed control at 25 g/ha [7]: 0%
- pest or weed control at 100 g/ha [7]: 0%
- pest or weed control at 200 g/ha [7]: 70%
- Plant damage (herbicidal activity), visually evaluated, TRZAW [8]: 0%
- Plant damage (herbicidal activity), visually evaluated, HORVU [11]: 0%
- Plant damage (herbicidal activity), visually evaluated, GLXMA [9]: 0%
- Plant damage (herbicidal activity), visually evaluated, ORYSA [10]: 0%

SMILES: C[C@@H](Oc1ccc(C(F)=C(c2ccccc2)C(F)(F)F)cc1)C(=O)Nc1nc2cc(Cl)ccc2o1 [Example 55, (R)-2-[4-(1,3,3,3-tetrafluoro-2-phenylprop-1-enyl)phenoxy]propionic acid-N-(5-chloro-2-benzoxazolyl)amide]
- pest or weed control at 25 g/ha [1]: 0%
- pest or weed control at 100 g/ha [1]: 0%
- pest or weed control at 200 g/ha [1]: 0%
- pest or weed control at 25 g/ha [2]: 0%
- pest or weed control at 100 g/ha [2]: 0%
- pest or weed control at 200 g/ha [2]: 0%
- pest or weed control at 25 g/ha [3]: 0%
- pest or weed control at 100 g/ha [3]: 0%
- pest or weed control at 200 g/ha [3]: 0%
- pest or weed control at 25 g/ha [4]: 10%
- pest or weed control at 100 g/ha [4]: 20%
- pest or weed control at 200 g/ha [4]: 35%
- plant injury at 25 g/ha [5]: 10%
- plant injury at 100 g/ha [5]: 10%
- plant injury at 200 g/ha [5]: 30%
- pest or weed control at 25 g/ha [6]: 0%
- pest or weed control at 100 g/ha [6]: 0%
- pest or weed control at 200 g/ha [6]: 0%
- pest or weed control at 25 g/ha [7]: 0%
- pest or weed control at 100 g/ha [7]: 0%
- pest or weed control at 200 g/ha [7]: 0%
- Plant damage (herbicidal activity), visually evaluated, TRZAW [8]: 0%
- Plant damage (herbicidal activity), visually evaluated, HORVU [11]: 0%
- Plant damage (herbicidal activity), visually evaluated, GLXMA [9]: 0%
- Plant damage (herbicidal activity), visually evaluated, ORYSA [10]: 0%

SMILES: C[C@@H](Oc1ccc(OC(F)=Cc2ccc(Cl)cc2)cc1)C(=O)Nc1nc2cc(Cl)ccc2o1 [Example 56, (R)-2-[4-(1-fluoro-2-(4-chlorophenyl)vinyloxy)phenoxy]propionic acid-N-(5-chloro-2-benzoxazolyl)amide]
- pest or weed control at 25 g/ha [1]: 0%
- pest or weed control at 100 g/ha [1]: 0%
- pest or weed control at 200 g/ha [1]: 10%
- pest or weed control at 25 g/ha [2]: 0%
- pest or weed control at 100 g/ha [2]: 20%
- pest or weed control at 200 g/ha [2]: 90%
- pest or weed control at 25 g/ha [3]: 20%
- pest or weed control at 100 g/ha [3]: 70%
- pest or weed control at 200 g/ha [3]: 90%
- pest or weed control at 25 g/ha [4]: 0%
- pest or weed control at 100 g/ha [4]: 20%
- pest or weed control at 200 g/ha [4]: 20%
- plant injury at 25 g/ha [5]: 10%
- plant injury at 100 g/ha [5]: 90%
- plant injury at 200 g/ha [5]: 90%
- pest or weed control at 25 g/ha [6]: 0%
- pest or weed control at 100 g/ha [6]: 0%
- pest or weed control at 200 g/ha [6]: 20%
- pest or weed control at 25 g/ha [7]: 0%
- pest or weed control at 100 g/ha [7]: 0%
- pest or weed control at 200 g/ha [7]: 10%
- Plant damage (herbicidal activity), visually evaluated, TRZAW [8]: 0%
- Plant damage (herbicidal activity), visually evaluated, HORVU [11]: 0%
- Plant damage (herbicidal activity), visually evaluated, GLXMA [9]: 0%
- Plant damage (herbicidal activity), visually evaluated, ORYSA [10]: 0%
